Converted amounts (≈) assume the structure as drawn. Where two headings read alike, the source gives them in different places.
Tests used:
AChE = target: T1, AChE (Electrophorus electricus, UniProt O42275); assay: In vitro AChE inhibition (ELISA kit); assay type: biochemical, electric eels
T1 construct: purchased Sigma–Aldrich Chemie GmbH (Buchs, Switzerland)
Method: The effects of the title compounds on the in vitro AChE activity were evaluated using ELISA technology. AChE derived from electric eels was purchased from Sigma–Aldrich Chemie GmbH (Buchs, Switzerland). Briefly, the AChE was preincubated with different concentrations (500, 250, 125, 62.5, 31.25, 15.625, and 7.8125 μg/mL) of the compounds in PBS solution. Then, the AChE activities after incubation were measured using the corresponding ELISA kit according to the manufacturer’s instructions (Jiancheng, Nanjing, China). The detection was performed using a multifunctional microplate reader (SpectraMax® M2e, Thermo Scientific, Waltham, MA, USA).

[1] = Toxicity to brine shrimp Artemia; assay type: in vivo, Artemia salina; conditions: Artemia salina (brine shrimp), in vivo, other: immersion in test solution, read-out: Lethal activity to Artemia LC50
Method: (§1) The toxicity of the title compounds to the brine shrimp A. salina was evaluated according to the reported method. […] Subsequently, approximately 50 hatched (10 h instar) brine shrimp were transferred into each pore of a 24-well plate filled with the test solutions. Finally, the brine shrimp were reared in an illumination incubator (28 ± 1 °C, 12 h light and 12 h dark alternatively) for 24 h. DMSO—1% Tween 20 was used as a blank control. Each treatment was conducted in triplicate. The dead insects were recorded under a stereoscope, and the corrected mortalities of A. salina treated with the compounds were calculated.

T. cinnabarinus = assay: Acaricidal activity against T. cinnabarinus (leaf spray on broad bean, 72 h); assay type: in vivo, Tetranychus cinnabarinus; conditions: for LC50: Tetranychus cinnabarinus; for acaricidal toxicity relative to compound 5: compared with compound 5
Method: An acaricidal activity assay of the test compounds against mites was conducted according to procedures outlined in the literature. […] The stock solution was then diluted to a series of working concentrations with 1% Tween 80 to obtain the test solutions. Subsequently, the leaves of two-leaf-stage broad beans were inoculated with 150–200 female adult T. cinnabarinus mites and reared in a greenhouse (26 ± 1 °C, 75–80% RH, 16 h light and 8 h dark alternatively) for 8 h. The test solution of the compound was then evenly sprayed on these leaves, which were then cultivated in the greenhouse for 72 h. In the blank control group, Tween 80 (1%) was used instead of the treatment solution. Cyetpyrafen (CAS NO. 1253429-01-4) was used as a positive control. Each treatment was repeated three times. The dead insects were recorded under a stereoscope, and the corrected mortalities of mites treated with the compounds were calculated.

A. salina = assay: Toxicity to brine shrimp Artemia; assay type: in vivo, Artemia salina
Method: as §1

[2] = 72 h, Table S1, read-out: Acaricidal activity LC50
[3] = 72 h, main text and Figure 5, read-out: LC50 against T. cinnabarinus

T1 sequence (O42275 24-633): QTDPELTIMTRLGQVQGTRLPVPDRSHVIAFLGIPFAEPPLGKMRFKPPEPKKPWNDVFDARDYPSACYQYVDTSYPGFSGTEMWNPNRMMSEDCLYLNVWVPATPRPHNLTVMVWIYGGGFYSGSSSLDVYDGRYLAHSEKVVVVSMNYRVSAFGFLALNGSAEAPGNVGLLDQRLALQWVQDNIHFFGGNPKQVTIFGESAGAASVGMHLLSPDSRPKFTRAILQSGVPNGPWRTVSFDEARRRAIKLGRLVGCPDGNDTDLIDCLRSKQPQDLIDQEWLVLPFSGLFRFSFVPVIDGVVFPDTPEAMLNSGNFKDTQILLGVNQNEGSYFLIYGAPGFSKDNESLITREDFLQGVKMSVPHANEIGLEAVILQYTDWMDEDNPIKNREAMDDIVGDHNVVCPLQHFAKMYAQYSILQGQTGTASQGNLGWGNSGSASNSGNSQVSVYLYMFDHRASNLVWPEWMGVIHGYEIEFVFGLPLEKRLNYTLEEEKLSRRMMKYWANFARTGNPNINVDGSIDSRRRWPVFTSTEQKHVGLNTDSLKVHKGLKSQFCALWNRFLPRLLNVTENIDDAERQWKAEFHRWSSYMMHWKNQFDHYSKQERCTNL

SMILES	IC50 (AChE) [µM]	LC50 at 6 h [1] [µg/mL]	LC50 at 12 h [1] [µg/mL]	LC50 (T. cinnabarinus; [2]) [µg/mL]	AChE inhibition IC50 (AChE) [µg/mL]	Lethal activity to Artemia LC50 (A. salina; 6 h) [µg/mL]	Lethal activity to Artemia LC50 (A. salina; 12 h) [µg/mL]	LC50 against T. cinnabarinus (T. cinnabarinus; 72 h, main text and Figure 5) [µg/mL]	LC50 (T. cinnabarinus; [3]) [µg/mL]	acaricidal toxicity relative to compound 5 (T. cinnabarinus)
COc1cc2cc(-c3ccc(F)cc3)c(=O)oc2cc1OS(=O)(=O)c1ccc(Cl)cc1 [Compound 5d]	149	72.8 (≈ 158 µM)	33.7 (≈ 73.1 µM)	99 (≈ 215 µM)	–	–	–	–	–	–
CCn1nc(C)cc1/C(OC(=O)C(C)(C)C)=C(/C#N)c1ccc(C(C)(C)C)cc1 [Cyetpyrafen, reference compound]	–	–	–	–	14.06 ± 10.20	11.7	6.13	15.0 (≈ 38.1 µM)	–	–
COc1cc2cc(-c3ccc(F)cc3)c(=O)oc2cc1OS(=O)(=O)c1ccc(F)cc1 [Compound 5c]	192	94.7 (≈ 213 µM)	48.6 (≈ 109 µM)	94 (≈ 212 µM)	–	–	–	–	–	–
COc1cc2cc(C(=O)Nc3ccc(Br)cc3)c(=O)oc2cc1O [Compound 7, 3-(4-bromoaniline formyl)-7-hydroxy-6-methoxy-2H-chromen-2-one]	197	52.3 (≈ 134 µM)	32.3 (≈ 82.8 µM)	82 (≈ 210 µM)	–	–	–	–	81 to 116 (≈ 208 to 297 µM)	–
COc1cc2cc(-c3ccc(F)cc3)c(=O)oc2cc1OS(=O)(=O)c1ccc(Br)cc1 [Compound 5e]	141	114 (≈ 226 µM)	79.5 (≈ 157 µM)	80 (≈ 158 µM)	–	–	–	–	–	–
COc1cc2cc(-c3ccc(F)cc3)c(=O)oc2cc1OS(=O)(=O)c1ccc([N+](=O)[O-])cc1 [Compound 5g]	261	86.6 (≈ 184 µM)	53.6 (≈ 114 µM)	68 (≈ 144 µM)	–	–	–	–	–	approximately 2 times
COc1cc2ccc(=O)oc2cc1OS(=O)(=O)c1ccc(Br)cc1 [Compound 4e]	343	157 (≈ 382 µM)	89.8 (≈ 218 µM)	636 (≈ 1550 µM)	–	–	–	–	–	–
COc1cc2cc(C(C)=O)c(=O)oc2cc1OS(=O)(=O)c1ccc(Cl)cc1 [Compound 6d]	355	45.5 (≈ 111 µM)	27.9 (≈ 68.2 µM)	159 (≈ 389 µM)	–	–	–	–	–	–
COc1cc2ccc(=O)oc2cc1OS(=O)(=O)c1ccc(F)cc1 [Compound 4c]	362	91.5 (≈ 261 µM)	56.3 (≈ 161 µM)	318 (≈ 908 µM)	–	–	–	–	–	–
COc1cc2ccc(=O)oc2cc1OS(=O)(=O)c1cc(Cl)c(Cl)cc1Cl [Compound 4h]	421	131 (≈ 301 µM)	125 (≈ 287 µM)	832 (≈ 1910 µM)	–	–	–	–	–	–
COc1cc2ccc(=O)oc2cc1O [Compound 4, 7-hydroxy-6-methoxy-2H-chromen-2-one]	551	27.2 (≈ 142 µM)	14.2 (≈ 73.9 µM)	144 (≈ 749 µM)	–	–	–	–	–	–
COc1cc2cc(-c3ccc(F)cc3)c(=O)oc2cc1OS(=O)(=O)c1ccccc1 [Compound 5a]	95.2	95.8 (≈ 225 µM)	55.8 (≈ 131 µM)	–	–	–	–	–	57 (≈ 134 µM)	approximately 2 times
COc1cc2ccc(=O)oc2cc1OS(=O)(=O)c1ccc(C(F)(F)F)cc1 [Compound 4f]	420	109 (≈ 272 µM)	75.6 (≈ 189 µM)	441 (≈ 1100 µM)	–	–	–	–	–	–
COc1cc2cc(C(C)=O)c(=O)oc2cc1OS(=O)(=O)c1cc(Cl)c(Cl)cc1Cl [Compound 6h]	275	48.5 (≈ 102 µM)	33.9 (≈ 71 µM)	107 (≈ 224 µM)	–	–	–	–	–	–
